According to patent US20250230147A1, “LACTAMS AS CBL-B INHIBITORS” (Genentech, Inc., priority 2021, published 2025):

Legend:
Cbl-b = Cbl-b (Homo sapiens (Human), UniProt Q13191); assay: Cbl-b LCK Ub TR-FRET assay (Cbl-b Lck HTRF); format: biochemical
Outline: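 Biotin-Cbl-b preincubated with compound (10-point 3-fold series) 60 min, then His-LCK with 1 mM ATP (2× mixture) added for 90 min at room temperature. Ubiquitination detected by TR-FRET using HA-ubiquitin/UBE2D2 adduct, anti-HA-D2 and streptavidin-Eu; IC50 normalised to no-LCK and DMSO controls.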

c-Cbl = c-Cbl (Homo sapiens (Human), UniProt P22681); assay: C-Cbl LCK Ub TR-FRET assay (c-cbl Lck HTRF); format: biochemical; conditions: for (fold-selectivity): C-cbl Lck HTRF IC50 relative to Cbl-b Lck HTRF IC50
Outline: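 After the ubiquitination reaction, detection mixture was added and plates incubated 20 min at room temperature before reading. IC50 values were calculated with wells lacking LCK as the low control and DMSO as the high control.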

c-Cbl, sequence (P22681 47-435): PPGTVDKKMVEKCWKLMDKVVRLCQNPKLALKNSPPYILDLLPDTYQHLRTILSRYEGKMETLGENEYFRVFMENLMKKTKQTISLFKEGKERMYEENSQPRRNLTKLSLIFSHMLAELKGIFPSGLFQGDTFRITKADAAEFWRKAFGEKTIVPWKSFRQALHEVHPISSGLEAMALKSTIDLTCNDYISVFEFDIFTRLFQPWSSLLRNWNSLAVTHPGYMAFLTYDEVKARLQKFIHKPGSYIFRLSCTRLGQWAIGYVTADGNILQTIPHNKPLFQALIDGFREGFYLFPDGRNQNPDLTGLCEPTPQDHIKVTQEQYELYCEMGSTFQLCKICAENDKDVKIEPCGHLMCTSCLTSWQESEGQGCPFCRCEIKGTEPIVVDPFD
Cbl-b, sequence (Q13191 40-426): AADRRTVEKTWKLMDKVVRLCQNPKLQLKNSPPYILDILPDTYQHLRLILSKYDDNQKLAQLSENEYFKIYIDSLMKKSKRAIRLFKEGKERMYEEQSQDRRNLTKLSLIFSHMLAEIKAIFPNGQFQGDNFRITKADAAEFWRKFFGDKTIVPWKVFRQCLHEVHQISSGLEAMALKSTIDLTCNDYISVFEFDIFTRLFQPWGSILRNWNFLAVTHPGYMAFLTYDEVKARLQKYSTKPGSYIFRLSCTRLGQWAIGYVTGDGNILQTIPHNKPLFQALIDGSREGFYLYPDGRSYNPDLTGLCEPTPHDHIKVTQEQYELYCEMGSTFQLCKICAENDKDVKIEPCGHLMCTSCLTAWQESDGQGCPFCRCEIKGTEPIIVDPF

SMILES | IC50 (Cbl-b) | IC50 (c-Cbl) | (fold-selectivity) (c-Cbl)
CC(C)[C@H]1CNCCN1Cc1cc2c(c(C(F)(F)F)c1)CN(c1cccc(C3([C@H](F)c4nncn4C)COC3)c1)C2=O [Compound 97, 2-(3-(3-((S)-fluoro(4-methyl-4H-1,2,4-triazol-3-yl)methyl)oxetan-3-yl)phenyl)-6-(((S)-2-isopropylpiperazin-1-yl)methyl)-4-(trifluoromethyl)isoindolin-1-one] | 20 nM | 38 nM | 1.9x
Cn1cnnc1[C@@H](F)C1(c2cccc(N3Cc4c(cc(CN5CC(CCO)C5)cc4C(F)(F)F)C3=O)c2)COC1 [Compound 178, (S)-2-(3-(3-(fluoro(4-methyl-4H-1,2,4-triazol-3-yl)methyl)oxetan-3-yl)phenyl)-6-((3-(2-hydroxyethyl)azetidin-1-yl)methyl)-4-(trifluoromethyl)isoindolin-1-one] | 170 nM | 350 nM | 2.0x
Cn1cnnc1[C@H](F)C1(c2cccc(N3Cc4c(cc(CN5CC6(CC6)C5)cc4C(F)(F)F)C3=O)c2)COC1 [Compound 78, (R)-6-((5-azaspiro[2.3]hexan-5-yl)methyl)-2-(3-(3-(fluoro(4-methyl-4H-1,2,4-triazol-3-yl)methyl)oxetan-3-yl)phenyl)-4-(trifluoromethyl)isoindolin-1-one] | 53 nM | 79 nM | 1.5x
Cn1cnnc1[C@@H](F)C1(c2cccc(N3Cc4c(cc(CN5CC[C@@H](F)C5)cc4C(F)(F)F)C3=O)c2)COC1 [Compound 81, 2-(3-(3-((S)-fluoro(4-methyl-4H-1,2,4-triazol-3-yl)methyl)oxetan-3-yl)phenyl)-6-(((R)-3-fluoropyrrolidin-1-yl)methyl)-4-(trifluoromethyl)isoindolin-1-one] | 270 nM | 750 nM | 2.8x
Cn1cnnc1[C@@H](F)C1(c2cccc(N3Cc4c(cc(CN5CC[C@H](F)C5)cc4C(F)(F)F)C3=O)c2)COC1 [Compound 83, 2-(3-(3-((S)-fluoro(4-methyl-4H-1,2,4-triazol-3-yl)methyl)oxetan-3-yl)phenyl)-6-(((S)-3-fluoropyrrolidin-1-yl)methyl)-4-(trifluoromethyl)isoindolin-1-one] | 210 nM | 640 nM | 3.1x
Cn1cnnc1CC1(c2cccc(N3Cc4c(cc(CN5CC(C)(F)C5)cc4C(F)(F)F)C3=O)c2)CC(F)(F)C1 [Compound 107, 2-(3-(3,3-difluoro-1-((4-methyl-4H-1,2,4-triazol-3-yl)methyl)cyclobutyl)phenyl)-6-((3-fluoro-3-methylazetidin-1-yl)methyl)-4-(trifluoromethyl)isoindolin-1-one] | 18 nM | 19 nM | 1.0x
Cn1cnnc1[C@H](F)C1(c2cccc(N3Cc4c(cc(CN5CC(C)(O)C5)cc4C(F)(F)F)C3=O)c2)CC1 (single isomer, unassigned) [Compound 30] | 65 nM | 91 nM | 1.4x
CC(C)[C@H]1CNCCN1Cc1cc2c(c(C(F)(F)F)c1)CN(c1cccc(C3([C@@H](F)c4nncn4C)CCC3)c1)C2=O [Compound 216, 2-(3-(1-((R)-fluoro(4-methyl-4H-1,2,4-triazol-3-yl)methyl)cyclobutyl)phenyl)-6-(((S)-2-isopropylpiperazin-1-yl)methyl)-4-(trifluoromethyl)isoindolin-1-one] | 8 nM | 4.8 nM | 0.60x
CC(C)[C@H]1CN(Cc2cc3c(c(C(F)(F)F)c2)CN(c2cccc(C4(Cc5nncn5C)CC(F)(F)C4)c2)C3=O)CCN1 [Compound 429, (S)-2-(3-(3,3-difluoro-1-((4-methyl-4H-1,2,4-triazol-3-yl)methyl)cyclobutyl)phenyl)-6-((3-isopropylpiperazin-1-yl)methyl)-4-(trifluoromethyl)isoindolin-1-one] | 26 nM | 20 nM | (0.76x)
COCCOCCNc1cc(C2(Cc3nncn3C)CCC2)cc(N2Cc3c(cc(CNC4(C)CCC4)cc3C(F)(F)F)C2=O)n1 [Compound 336, 2-(6-((2-(2-methoxyethoxy)ethyl)amino)-4-(1-((4-methyl-4H-1,2,4-triazol-3-yl)methyl)cyclobutyl)pyridin-2-yl)-6-(((1-methylcyclobutyl)amino)methyl)-4-(trifluoromethyl)isoindolin-1-one] | 33 nM | 23 nM | (0.70x)
Cn1cnnc1CC1(c2cc(NCCN3CCOCC3)nc(N3Cc4c(cc(CNC5(C)CCC5)cc4C(F)(F)F)C3=O)c2)CCC1 [Compound 340, 2-(4-(1-((4-methyl-4H-1,2,4-triazol-3-yl)methyl)cyclobutyl)-6-((2-morpholinoethyl)amino)pyridin-2-yl)-6-(((1-methylcyclobutyl)amino)methyl)-4-(trifluoromethyl)isoindolin-1-one] | 440 nM | 320 nM | (0.74x)
CC(C)[C@H]1CN(S(C)(=O)=O)CCN1Cc1cc2c(c(C(F)(F)F)c1)CN(c1cccc(C3([C@H](F)c4nncn4C)COC3)c1)C2=O [Compound 196, 2-(3-(3-((S)-fluoro(4-methyl-4H-1,2,4-triazol-3-yl)methyl)oxetan-3-yl)phenyl)-6-(((S)-2-isopropyl-4-(methylsulfonyl)piperazin-1-yl)methyl)-4-(trifluoromethyl)isoindolin-1-one] | 240 nM | 660 nM | 2.8x
C=CC1(O)CN(Cc2cc3c(c(C(F)(F)F)c2)CN(c2cccc(C4([C@@H](F)c5nncn5C)COC4)c2)C3=O)C1 [Compound 169, (R)-2-(3-(3-(fluoro(4-methyl-4H-1,2,4-triazol-3-yl)methyl)oxetan-3-yl)phenyl)-6-((3-hydroxy-3-vinylazetidin-1-yl)methyl)-4-(trifluoromethyl)isoindolin-1-one] | 44 nM | 99 nM | 2.2x
CC(C)[C@H]1CN(C)CCN1Cc1cc(Cl)c2c(c1)C(=O)N(c1cccc(C3(Cc4nncn4C)CC(F)(F)C3)c1)C2 [Compound 281, (S)-4-chloro-2-(3-(3,3-difluoro-1-((4-methyl-4H-1,2,4-triazol-3-yl)methyl)cyclobutyl)phenyl)-6-((2-isopropyl-4-methylpiperazin-1-yl)methyl)isoindolin-1-one] | 16 nM | 11 nM | (0.68x)
CC(C)[C@H]1CN(C)CCN1Cc1cc2c(c(C(F)(F)F)c1)CN(c1cccc(C3([C@@H](F)c4n[nH]cc4C(F)(F)F)COC3)c1)C2=O [Compound 377, 2-(3-(3-((R)-fluoro(4-(trifluoromethyl)-1H-pyrazol-3-yl)methyl)oxetan-3-yl)phenyl)-6-(((S)-2-isopropyl-4-methylpiperazin-1-yl)methyl)-4-(trifluoromethyl)isoindolin-1-one] | 10000 nM | 20000 nM | (2.0x)
Cn1cnnc1CC1(c2cccc(N3Cc4c(cc(OCc5c[nH]cn5)cc4C(F)(F)F)C3=O)c2)CC(F)(F)C1 [Compound 422, 6-((1H-imidazol-4-yl)methoxy)-2-(3-(3,3-difluoro-1-((4-methyl-4H-1,2,4-triazol-3-yl)methyl)cyclobutyl)phenyl)-4-(trifluoromethyl)isoindolin-1-one] | 16 nM | 17 nM | (1.1x)
COC(C)(C)CNCc1cc2c(c(C(F)(F)F)c1)CN(c1cccc(C3(Cc4nncn4C)CC(F)(F)C3)c1)C2=O [Compound 373, 2-(3-(3,3-difluoro-1-((4-methy-4H-1,2,4-triazol-3-yl)methyl)cyclobutyl)phenyl)-6-(((2-methoxy-2-methylpropyl)amino)methyl)-4-(trifluoromethyl)isoindolin-1-one] | 20 nM | 25 nM | (1.3x)
CC(C)[C@@H]1CN(Cc2cc3c(c(C(F)(F)F)c2)CN(c2cccc(C4([C@@H](F)c5nncn5C)COC4)c2)C3=O)CCN1C [Compound 218, 2-(3-(3-((R)-fluoro(4-methyl-4H-1,2,4-triazol-3-yl)methyl)oxetan-3-yl)phenyl)-6-(((R)-3-isopropyl-4-methylpiperazin-1-yl)methyl)-4-(trifluoromethyl)isoindolin-1-one] | 22 nM | 29 nM | 1.3x
COCC1CCN(Cc2cc3c(c(C(F)(F)F)c2)CN(c2cccc(C4([C@@H](F)c5nncn5C)COC4)c2)C3=O)CC1 [Compound 145, (R)-2-(3-(3-(fluoro(4-methyl-4H-1,2,4-triazol-3-yl)methyl)oxetan-3-yl)phenyl)-6-((4-(methoxymethyl)piperidin-1-yl)methyl)-4-(trifluoromethyl)isoindolin-1-one] | 130 nM | 180 nM | 1.4x
Cc1cnnn1CC1(c2cccc(N3Cc4c(cc(CN5CCN(C)C[C@@H]5C(C)C)cc4C(F)(F)F)C3=O)c2)COC1 [Compound 258, (S)-6-((2-isopropyl-4-methylpiperazin-1-yl)methyl)-2-(3-(3-((5-methyl-1H-1,2,3-triazol-1-yl)methyl)oxetan-3-yl)phenyl)-4-(trifluoromethyl)isoindolin-1-one] | 22 nM | 31 nM | (1.4x)
Cn1cnnc1[C@@H](F)C1(c2cccc(N3Cc4c(cc(CN5CCC6(CC6)C5)cc4C(F)(F)F)C3=O)c2)CC1 [Compound 28, (S)-6-(5-azaspiro[2.4]heptan-5-ylmethyl)-2-(3-(1-(fluoro(4-methyl-4H-1,2,4-triazol-3-yl)methyl)cyclopropyl)phenyl)-4-(trifluoromethyl)isoindolin-1-one] | 80 nM | 180 nM | 2.2x
